Literature values as cited in patent US20210077540A1, “BIOACTIVE GREEN-LIPPED MUSSEL EXTRACTS AND USES THEREOF” (SANFORD LIMITED, priority 2018, published 2021).

Key:
[1] = oral supplementation, meta-analysis of randomized, double-blind, placebo-controlled trials
[2] = supplementation, women with gestational hypertension incl. pre-eclampsia

## N=C(N)NCCC[C@H](N)C(=O)O [L-arginine]
[1]
  reduction of diastolic blood pressure, pooled estimate: 2.7 mmHg
  reduction of systolic blood pressure, pooled estimate: 5.4 mmHg
[2]
  effect on diastolic blood pressure (in words): reduces diastolic blood pressure
  effect on length of pregnancy (in words): lengthens pregnancy
